Laboratory results reported in ChEMBL document CHEMBL5620371, “Transient receptor potential ankyrin 1 (TRPA1) modulators: Recent update and future perspective” (Eur J Med Chem, 2023).
Each block holds one compound with its values, some of them ahead of it.

Key:
[1] = molecular target: T1, Transient receptor potential cation channel subfamily A member 1 (Mus musculus, UniProt Q8BLA8); test: Agonist activity at full length mouse TRPA1 transfected in HEK293F cells assessed as increase in Ca2+ influx by FLIPR calcium assay; assay type: cell-based
[2] = molecular target: T2, Transient receptor potential cation channel subfamily A member 1 (Homo sapiens, UniProt O75762); test: Inhibition of TRPA1 (unknown origin)
[3] = molecular target: T3, Transient receptor potential cation channel subfamily V member 1 (Homo sapiens, UniProt Q8NER1); test: Inhibition of TRPV1 (unknown origin)
[4] = molecular target: T3, Transient receptor potential cation channel subfamily V member 1; test: Agonist activity at human recombinant TRPV1 over expressed in HEK293 cells assessed as increase in intracellular calcium level by measuring efficacy by Fluo4-AM based assay; assay type: cell-based
[5] = molecular target: T2, Transient receptor potential cation channel subfamily A member 1; test: Agonist activity at TRPA1 (unknown origin)
[6] = molecular target: T2, Transient receptor potential cation channel subfamily A member 1; test: Antagonist activity at TRPA1 (unknown origin) expressed in HEK293T cells assessed as inhibition of agonist induced channel current by whole-cell patch clamp analysis; assay type: cell-based
[7] = molecular target: T4, Transient receptor potential cation channel subfamily A member 1 (Rattus norvegicus, UniProt Q6RI86); test: Agonist activity at rat recombinant TRPA1 expressed in HEK293 cells assessed as increase in intracellular calcium accumulation by Fluo4-AM based assay; assay type: cell-based
[8] = molecular target: T1, Transient receptor potential cation channel subfamily A member 1; test: Antagonist activity at mouse TRPA1 expressed in HEK293F cells as increase in Ca2+ influx by FLIPR calcium assay; assay type: cell-based
[9] = molecular target: T4, Transient receptor potential cation channel subfamily A member 1; test: Agonist activity at rat TRPA1 transfected in HEK293F cells assessed as increase in Ca2+ influx by FLIPR calcium assay; assay type: cell-based
[10] = molecular target: T2, Transient receptor potential cation channel subfamily A member 1; test: Antagonist activity at human recombinant TRPA1 transfected in HEK293T cells assessed as increase in Ca2+ influx by FLIPR calcium assay; assay type: cell-based

T1 sequence (Q8BLA8 whole entry): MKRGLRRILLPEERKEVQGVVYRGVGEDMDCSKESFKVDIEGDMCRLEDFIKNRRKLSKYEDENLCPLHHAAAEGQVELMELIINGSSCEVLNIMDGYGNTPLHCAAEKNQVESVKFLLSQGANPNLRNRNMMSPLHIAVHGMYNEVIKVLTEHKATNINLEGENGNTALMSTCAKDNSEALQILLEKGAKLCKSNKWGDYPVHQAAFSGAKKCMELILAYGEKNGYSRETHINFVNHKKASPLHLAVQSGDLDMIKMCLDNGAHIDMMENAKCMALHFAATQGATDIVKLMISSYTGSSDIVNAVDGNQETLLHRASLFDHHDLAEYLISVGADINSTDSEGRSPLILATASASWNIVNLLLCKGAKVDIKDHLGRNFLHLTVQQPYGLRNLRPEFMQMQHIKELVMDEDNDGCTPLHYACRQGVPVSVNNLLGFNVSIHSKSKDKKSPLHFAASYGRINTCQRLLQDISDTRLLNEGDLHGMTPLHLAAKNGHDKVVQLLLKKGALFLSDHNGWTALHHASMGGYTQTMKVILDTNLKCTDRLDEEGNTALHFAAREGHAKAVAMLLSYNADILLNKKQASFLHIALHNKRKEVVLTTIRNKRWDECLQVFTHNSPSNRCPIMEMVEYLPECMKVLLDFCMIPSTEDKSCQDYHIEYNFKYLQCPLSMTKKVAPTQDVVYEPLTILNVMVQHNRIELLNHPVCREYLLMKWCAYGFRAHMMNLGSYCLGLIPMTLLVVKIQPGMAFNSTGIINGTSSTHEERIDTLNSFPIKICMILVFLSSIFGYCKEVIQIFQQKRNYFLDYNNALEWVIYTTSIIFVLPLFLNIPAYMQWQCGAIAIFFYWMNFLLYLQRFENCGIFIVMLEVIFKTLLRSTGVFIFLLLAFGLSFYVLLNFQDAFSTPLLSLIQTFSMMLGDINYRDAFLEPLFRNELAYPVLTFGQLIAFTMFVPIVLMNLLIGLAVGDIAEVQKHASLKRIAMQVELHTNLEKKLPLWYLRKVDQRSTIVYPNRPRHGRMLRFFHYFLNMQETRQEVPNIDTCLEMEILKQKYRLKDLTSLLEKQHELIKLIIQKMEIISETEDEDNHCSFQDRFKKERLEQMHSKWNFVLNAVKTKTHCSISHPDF
T3 sequence (Q8NER1 whole entry): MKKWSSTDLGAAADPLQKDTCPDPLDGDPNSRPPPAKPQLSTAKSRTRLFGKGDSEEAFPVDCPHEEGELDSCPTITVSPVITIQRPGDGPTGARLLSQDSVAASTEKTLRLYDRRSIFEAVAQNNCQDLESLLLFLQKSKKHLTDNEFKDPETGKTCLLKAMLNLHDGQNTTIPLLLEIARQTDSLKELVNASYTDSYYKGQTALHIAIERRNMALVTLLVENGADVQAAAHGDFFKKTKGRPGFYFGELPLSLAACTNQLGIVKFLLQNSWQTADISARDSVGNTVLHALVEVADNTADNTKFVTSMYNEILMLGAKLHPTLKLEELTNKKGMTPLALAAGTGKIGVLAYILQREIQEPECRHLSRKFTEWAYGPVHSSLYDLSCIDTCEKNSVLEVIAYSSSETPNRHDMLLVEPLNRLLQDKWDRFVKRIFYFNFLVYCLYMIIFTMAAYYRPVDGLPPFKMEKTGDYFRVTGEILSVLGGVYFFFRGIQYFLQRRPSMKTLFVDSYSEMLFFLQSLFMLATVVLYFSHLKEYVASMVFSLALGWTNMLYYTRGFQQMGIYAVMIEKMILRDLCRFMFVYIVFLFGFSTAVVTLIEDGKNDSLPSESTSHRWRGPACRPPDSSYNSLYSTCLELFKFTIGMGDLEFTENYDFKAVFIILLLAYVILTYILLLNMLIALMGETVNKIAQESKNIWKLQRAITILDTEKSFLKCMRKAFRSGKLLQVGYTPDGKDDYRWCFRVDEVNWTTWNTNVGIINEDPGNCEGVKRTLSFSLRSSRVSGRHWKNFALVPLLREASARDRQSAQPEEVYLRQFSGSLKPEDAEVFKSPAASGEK
T2 sequence (O75762 whole entry): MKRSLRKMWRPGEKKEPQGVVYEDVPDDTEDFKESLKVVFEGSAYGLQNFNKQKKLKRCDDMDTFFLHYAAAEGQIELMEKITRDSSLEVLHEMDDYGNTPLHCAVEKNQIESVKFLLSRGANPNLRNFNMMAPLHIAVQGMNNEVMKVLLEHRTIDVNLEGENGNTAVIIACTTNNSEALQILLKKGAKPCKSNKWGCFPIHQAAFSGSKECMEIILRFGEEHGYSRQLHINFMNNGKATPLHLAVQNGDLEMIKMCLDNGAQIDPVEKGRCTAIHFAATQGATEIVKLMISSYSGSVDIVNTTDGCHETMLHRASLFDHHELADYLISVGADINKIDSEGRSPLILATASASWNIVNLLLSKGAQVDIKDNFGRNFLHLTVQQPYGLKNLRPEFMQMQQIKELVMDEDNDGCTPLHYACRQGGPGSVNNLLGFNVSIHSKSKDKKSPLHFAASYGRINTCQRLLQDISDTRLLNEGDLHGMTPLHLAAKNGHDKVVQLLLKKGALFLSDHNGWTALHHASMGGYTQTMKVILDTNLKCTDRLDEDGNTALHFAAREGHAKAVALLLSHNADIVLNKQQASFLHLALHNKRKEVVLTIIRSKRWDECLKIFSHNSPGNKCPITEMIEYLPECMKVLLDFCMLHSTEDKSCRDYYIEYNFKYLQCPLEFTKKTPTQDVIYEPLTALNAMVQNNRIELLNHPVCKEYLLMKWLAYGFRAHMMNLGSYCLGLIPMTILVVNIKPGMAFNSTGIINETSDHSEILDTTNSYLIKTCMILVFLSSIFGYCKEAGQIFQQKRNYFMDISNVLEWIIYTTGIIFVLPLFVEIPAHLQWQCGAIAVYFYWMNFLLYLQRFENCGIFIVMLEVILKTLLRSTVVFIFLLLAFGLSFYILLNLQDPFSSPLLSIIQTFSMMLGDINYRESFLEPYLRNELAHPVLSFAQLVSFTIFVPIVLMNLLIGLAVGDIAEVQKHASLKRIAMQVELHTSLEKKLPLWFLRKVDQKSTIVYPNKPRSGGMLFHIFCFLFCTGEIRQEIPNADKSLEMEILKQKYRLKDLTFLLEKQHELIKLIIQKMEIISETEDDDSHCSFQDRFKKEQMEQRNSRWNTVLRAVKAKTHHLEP
T4 sequence (Q6RI86 whole entry): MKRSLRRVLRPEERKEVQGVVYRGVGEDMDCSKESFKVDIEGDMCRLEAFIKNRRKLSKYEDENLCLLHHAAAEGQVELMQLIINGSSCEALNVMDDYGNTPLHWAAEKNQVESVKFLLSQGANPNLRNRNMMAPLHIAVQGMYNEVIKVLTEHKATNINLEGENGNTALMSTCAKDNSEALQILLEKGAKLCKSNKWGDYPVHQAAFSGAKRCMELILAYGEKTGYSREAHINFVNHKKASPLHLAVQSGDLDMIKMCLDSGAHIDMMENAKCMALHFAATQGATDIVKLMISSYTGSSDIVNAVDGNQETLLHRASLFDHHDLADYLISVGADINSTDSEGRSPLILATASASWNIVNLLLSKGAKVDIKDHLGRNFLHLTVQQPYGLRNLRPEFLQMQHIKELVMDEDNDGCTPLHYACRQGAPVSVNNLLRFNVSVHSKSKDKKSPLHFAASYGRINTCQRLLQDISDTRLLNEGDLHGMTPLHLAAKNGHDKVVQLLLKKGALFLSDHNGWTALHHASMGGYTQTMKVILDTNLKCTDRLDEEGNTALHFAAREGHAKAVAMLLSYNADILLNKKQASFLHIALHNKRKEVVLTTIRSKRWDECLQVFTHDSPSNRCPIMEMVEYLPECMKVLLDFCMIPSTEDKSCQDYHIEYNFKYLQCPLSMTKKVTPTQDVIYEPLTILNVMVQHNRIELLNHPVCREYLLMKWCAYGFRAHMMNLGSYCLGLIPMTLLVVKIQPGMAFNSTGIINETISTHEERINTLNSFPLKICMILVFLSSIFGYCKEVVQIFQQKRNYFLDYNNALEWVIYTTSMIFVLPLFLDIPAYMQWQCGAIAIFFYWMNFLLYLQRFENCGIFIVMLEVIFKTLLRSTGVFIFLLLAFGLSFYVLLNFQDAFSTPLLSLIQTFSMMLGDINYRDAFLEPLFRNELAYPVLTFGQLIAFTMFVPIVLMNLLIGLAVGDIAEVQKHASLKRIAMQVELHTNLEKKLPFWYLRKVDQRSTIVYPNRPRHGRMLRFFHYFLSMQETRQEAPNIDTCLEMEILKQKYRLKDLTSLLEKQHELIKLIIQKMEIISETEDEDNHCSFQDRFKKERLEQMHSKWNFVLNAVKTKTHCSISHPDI

Compound: O=C(O)CCCCCCCCCO
EC50 [1]: 510 µM

IC50 [2]: 16.2 µM
Compound: O=C1C[C@@H](c2ccc(O[C@@H]3O[C@H](CO)[C@@H](O)[C@H](O)[C@H]3O)cc2)Oc2cc(O)ccc21 [LIQUIRITIN]

IC50 [3]: > 50 µM
Compound: CC(C)c1cc(CCC(=O)CC(O)Cc2ccccc2)cc(C(C)C)c1O (stereo unspecified)

IC50 [3]: > 10 µM
Compound: O=C(CCc1ccccc1)CC(O)CCCCCCc1ccccc1 (stereo unspecified)

EC50 [4]: 3.7 µM
Compound: C[C@@H](N)[C@@H](O)C/C=C\C/C=C\C/C=C\C/C=C\C/C=C\C/C=C\CCCCCC[C@H](O)[C@@H](C)N [LEUCETTAMOL A]

IC50 [2]: 4.5 µM
IC50 [3]: > 50 µM
Compound: O=C(CCc1ccccc1)CC(O)Cc1ccccc1 (stereo unspecified)

EC50 [5]: 0.00065 µM
Compound: COCCCN(C(=O)CCl)c1nc(-c2ccc(OC)cc2)cs1

EC50 [6]: 0.09 µM
Compound: C[n+]1cc2c3c(ccc2c2ccc4cc5c(cc4c21)OCO5)OCO3

IC50 [7]: 0.51 µM
Compound: CC(C)CN1C(=O)/C(=C/C(=O)O)c2cccc(F)c21

EC50 [8]: 44 µM
Compound: CCC/C=C1\OC(=O)C2=C1CCC=C2 [LIGUSTILIDE]

Compound: CCC/C=C1\OC(=O)c2ccccc21 [Z-butylidenephthalide]
EC50 [1]: 539 µM

IC50 [9]: 0.007 µM
Compound: Cn1cnc2ncn(Cc3nc([C@@H]4CO[C@@H](c5ccc(F)cc5)C4)no3)c(=O)c21

Compound: O=NN1[C@@H]2c3ccccc3[C@H]1[C@@H](C(F)(F)F)C2C(F)(F)F (stereo partly specified)
EC50 [10]: 5.63 µM

IC50 [3]: > 10 µM
Compound: O=C(CCc1ccc2c(c1)OCO2)CC(O)CCCCCCc1ccccc1 (stereo unspecified)

EC50 [1]: 422 µM
Compound: O=C(O)/C=C/CCCCCCCO
